Test results reported in US8198323B2, “Curcumin analogues and uses thereof” (The University of North Carolina at Chapel Hill, priority 2004, dated 2012).
Numbering of substitutions follows the chain as printed. Entries after “also recorded” stand apart in the source; their conditions may differ.

What was measured:
Type in all cases: cell-based
[1] = molecular target: T1, mutant LNCaP AR (Homo sapiens, UniProt P10275, T878A); assay: AR transactivation assay (MMTV-luciferase), DU-145 cells transfected with mutant LNCaP AR and ARA70; conditions: FIG. 3B
T1 construct: expressed in transfected cells; host or cells: DU-145
T1 sequence (P10275 1-920 T878A): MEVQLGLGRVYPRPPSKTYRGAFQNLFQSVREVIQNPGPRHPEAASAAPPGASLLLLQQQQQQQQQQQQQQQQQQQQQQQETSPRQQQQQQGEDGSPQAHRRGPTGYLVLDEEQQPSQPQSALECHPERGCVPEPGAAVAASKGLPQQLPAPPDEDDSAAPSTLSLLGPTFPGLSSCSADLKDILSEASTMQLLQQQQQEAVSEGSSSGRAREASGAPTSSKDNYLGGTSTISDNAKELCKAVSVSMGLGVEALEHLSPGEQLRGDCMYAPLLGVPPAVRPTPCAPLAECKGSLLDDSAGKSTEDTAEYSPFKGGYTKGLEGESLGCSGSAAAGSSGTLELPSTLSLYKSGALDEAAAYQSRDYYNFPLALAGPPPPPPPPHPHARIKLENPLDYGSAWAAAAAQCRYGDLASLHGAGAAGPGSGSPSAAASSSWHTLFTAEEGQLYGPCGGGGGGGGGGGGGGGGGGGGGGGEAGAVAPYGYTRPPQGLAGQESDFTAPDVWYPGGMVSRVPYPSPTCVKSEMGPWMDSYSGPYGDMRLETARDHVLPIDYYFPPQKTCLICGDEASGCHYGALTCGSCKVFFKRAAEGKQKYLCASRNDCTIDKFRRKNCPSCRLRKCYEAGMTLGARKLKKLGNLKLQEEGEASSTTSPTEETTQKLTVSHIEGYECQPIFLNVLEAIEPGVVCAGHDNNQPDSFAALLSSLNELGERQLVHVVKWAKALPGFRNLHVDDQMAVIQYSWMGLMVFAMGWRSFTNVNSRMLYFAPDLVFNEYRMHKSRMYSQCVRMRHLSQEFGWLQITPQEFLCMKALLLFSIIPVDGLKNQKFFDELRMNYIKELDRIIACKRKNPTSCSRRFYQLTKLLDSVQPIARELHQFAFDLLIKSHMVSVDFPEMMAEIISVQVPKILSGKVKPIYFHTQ
Description: (§1) Cell Culture and Transfections. Human prostate cancer DU145 and PC-3 cells were maintained in Dulbecco's minimum essential medium (DMEM) containing penicillin (25 units/mL), streptomycin (25 μg/mL), and 10% fetal calf serum (FCS). For AR transactivation assay, PC-3 cells were transfected with an AR expression plasmid and reporter gene. Because of a low content of endogenous AR coactivators, DU-145 cells were transfected with expression plasmids for AR and ARA70, and reporter gene. The conditions were followed as previously described in Miyamoto et al., Proc. Natl. Acad. Sci. USA, 95, 7379-7384 (1998), with minor modifications.
(§2) Transfections were performed using the SuperFect kit according to manufacturer's procedures (Qiagen, Chatsworth, Calif.). Briefly, 1×10^5 cells were plated on 35-mm dishes 24 h before transfection, and then a reporter plasmid, MMTV-Luciferase, which contains MMTV-LTR promoter and AR-binding element, was co-transfected with an AR expression plasmid (wild type or mutant), or pSG5ARA70. PRL-TK was used as an internal control for transfection efficiency. The total amount of DNA was adjusted to […] with pSG5 in all transcriptional activation assays. After a 2 h transfection, the medium was changed to DMEM-10% charcoal stripped serum medium, and 14-16 h later, the cells were treated with DHT, antiandrogen, or test compounds. After another 14-16 h, the cells were harvested and tested for luciferase activity in luciferase assays (Promega, Dual Luciferase Assay System, Madison, Wis.). Data were expressed in relative luciferase activity as compared to an internal luciferase positive control.

[2] = molecular target: T2, mutant AR in LNCaP cells (Homo sapiens, UniProt P10275, T878A); assay: LNCaP AR transactivation assay / LNCaP cell growth assay (Table 2); conditions: 1 nM DHT, symbols 0, +, ++ not defined
T2 construct: LNCaP cells, which express a clinically relevant mutant AR; endogenous in cells; host or cells: LNCaP
T2 sequence (P10275 1-920 T878A): T1 sequence (P10275 1-920 T878A)
Description: (§3) Cell culture and transfection—Human prostate cancer LNCaP and PC-3 cells were maintained in RPMI medium and Dulbecco's minimum essential medium (DMEM), respectively. Both media were strengthened with penicillin (25 units/mL), streptomycin (25 μg/mL), and 10% fetal calf serum. Androgen receptor transactivation assay, an androgen-dependent reporter gene transcription test, was employed as the primary screening for potential antiandrogen identification. This assay was first performed in LNCaP cells, which express a clinically relevant mutant AR. Once potential compounds were indicated by LNCaP AR transactivation assay, they were re-examined for their potential activity against wild type AR. Wild type AR transactivation assay was performed in PC-3 host cells, which lack an endogenous, functional AR.
(§4) Our previously described conditions for cell transfection were followed (Ohtsu et al, J Medicinal Chem 45: 5037-5042 (2002); Ohtsu et al., Bioorganic & Medicinal Chemistry 11:5083-5090 (2003)). In brief, cells were plated in 24- or 48-well tissue culture dishes twenty-four (PC-3 cells) or forty-eight (LNCaP cells) hours prior to transfection. Subsequently, LNCaP cells were transfected with a reporter gene, MMTV-luciferase, which contains MMTV-LTR promoter and androgen receptor binding element, and PRL-SV40, which served as an internal control for transfection efficiency. PC-3 cells were transfected with a wild type AR expression plasmid, pSG5AR, in addition to the above-mentioned MMTV-luciferase reporter gene and PRL-SV40 internal control. SuperFect (Qiagen, Chatsworth, Calif.) was employed as the transfection reagent following manufacturer's recommendations. At the end of a five-hour transfection, the medium was changed to DMEM or RPMI supplemented with 10% charcoal dextran-stripped, androgen-depleted serum. Twenty-four hours later, the cells were treated with 1 nM of DHT and/or test compounds at the designated concentration for another twenty-four hours. The cells were harvested for luciferase activity assay using Dual Luciferase Assay System (Promega, Madison, Wis.). The derived data were expressed as relative luciferase activity normalized to the internal luciferase control. DHT incubation induced a marked expression of reporter gene.
LNCaP cell growth assay thus was used as an alternative to confirm potential antiandrogens identified by the above-mentioned AR transactivation assay. An MTT analysis, relying upon the conversion of a colorless substrate to reduced tetrazolium by the mitochondrial dehydrogenase, was used. The experimental conditions were detailed elsewhere (Ohtsu et al., Bioorganic & Medicinal Chemistry 11:5083-5090 (2003)). Briefly, cells were plated in 96-well tissue culture plates and then incubated for 5 consecutive days in the presence of 1 nM of DHT and/or test compounds in 10% charcoal dextran-stripped serum-containing RPMI. At the end of incubation, the cells were given MTT (5 mg/ml in PBS) for three hours at 37° C. The resultant precipitate was dissolved in a lysis buffer and then quantitated at a wavelength of 595 nm using a microplate reader. To ensure the accuracy of data derived from the MTT analysis, cell count was performed using duplicate samples.

[3] = molecular target: T3, wild type AR (Homo sapiens, UniProt P10275); assay: AR transactivation assay (MMTV-luciferase), DU-145 cells transfected with wild-type AR and ARA70; parameters: expressed in transfected cells; host or cells: DU-145; conditions: FIG. 3C; for reduction (antiandrogen activity): DU-145 cells transfected with wild-type AR and ARA70; for antiandrogen activity (in words): DU-145 cells, wild-type AR and ARA70
T3 sequence (P10275 1-920): T1 sequence (P10275 1-920 T878A) with A878T
Description: as §1, with “gene.” for “gene. The conditions were followed as previously described in Miyamoto et al., Proc. Natl. Acad. Sci. USA, 95, 7379-7384 (1998), with minor modifications.”
as §2

[4] = molecular target: T3, wild type AR; assay: Wild type AR transactivation assay in PC-3 host cells (Table 2); parameters: expressed in transfected cells; host or cells: PC-3; conditions: PC-3 cells transfected with wild type AR, 1 nM DHT; symbols 0, +, ++ not defined
Description: as §3, §4

[5] = molecular target: T3, wild type AR; assay: AR transactivation assay (MMTV-luciferase), PC-3 cells transfected with wild-type AR; parameters: expressed in transfected cells; host or cells: PC-3; conditions: PC-3 cell assay system; FIG. 3A
Description: as §1, with “gene.” for “gene. The conditions were followed as previously described in Miyamoto et al., Proc. Natl. Acad. Sci. USA, 95, 7379-7384 (1998), with minor modifications.”
as §2, with “Data were expressed in relative luciferase activity as compared to an internal luciferase positive control.” left out

Compound: COc1cc(C=CC(=O)CC(=O)C=Cc2ccc(OC)c(OC)c2)ccc1O [Compound 9, Monomethylcurcumin]
- antagonistic activity against the AR (in words) [1]: significantly less active than 4

Compound: COc1ccc(/C=C/C(=O)/C=C(O)/C=C/c2ccc(OC)c(OC)c2OC)c(OC)c1OC [LL-32B]
- anti-AR activity, LNCaP [2]: 0

Compound: CCOC(=O)CCC(C(=O)C=Cc1ccc(O)c(OC)c1)C(=O)C=Cc1ccc(O)c(OC)c1 (centres unmarked) [Compound 22]
- reduction (antiandrogen activity) [3]: 53.8%
- antiandrogen activity (in words) [3]: comparable or more potent antiandrogen activity than HF

Compound: COc1ccc(/C=C/C(=O)C(C)(F)C(=O)/C=C/c2ccc(OC)c(OC)c2)cc1OC [LL-62]
- anti-AR activity, wrAR/PC3 [4]: 0

Compound: COc1ccc(/C=C/C(=O)CC(O)/C=C/c2ccc(OC)c(OC)c2)cc1OC (centres unmarked) [LL-55]
- anti-AR activity, wrAR/PC3 [4]: 0

Compound: O=C(/C=C(O)/C=C/c1ccc(O)o1)/C=C/c1ccc(O)o1 [LL-7]
- anti-AR activity, wrAR/PC3 [4]: 0

Compound: COc1cc(OC)c(OC)cc1/C=C/C(O)=C/C(=O)/C=C/c1ccc(OC)c(OC)c1 [LL-36]
- anti-AR activity, LNCaP [2]: 0

Compound: COC(=O)COc1ccc(C=CC(=O)CC(=O)C=Cc2ccc(OCC(=O)OC)c(OC)c2)cc1OC [Compound 20]
- reduction (antiandrogen activity) [3]: 54%
- antiandrogen activity (in words) [3]: comparable or more potent antiandrogen activity than HF

Compound: COc1ccc(/C=C/C(=O)/C=C(O)/C=C/c2ccc(OC)cc2F)c(F)c1 [HOJ-9]
- anti-AR activity, LNCaP [2]: 0

Compound: COc1cc(/C=C/C(O)=C/C(=O)/C=C/c2ccc(OC)c(OC)c2)ccc1O [LL-17]
- anti-AR activity, LNCaP [2]: 0

Compound: COc1cc(/C=C/C(=O)/C=C(O)/C=C/c2ccc(O)c(OC)c2)ccc1O [Compound 1, Curcumin]
- antagonistic activity against the AR (in words) [5]: inactive
- antagonistic activity against the AR (in words) [1]: inactive
- antiandrogen activity (in words) [3]: inactive; also recorded: not active

Compound: COc1cc(/C=C/C(O)=C/C(=O)/C=C/c2ccc(O)cc2)ccc1O [LL-18]
- anti-AR activity, LNCaP [2]: 0

Compound: COc1cc(/C=C/C(=O)/C=C/c2ccc(O)c(OC)c2)ccc1O [LL-10]
- anti-AR activity, wrAR/PC3 [4]: 0

Compound: COc1ccc(/C=C/C(=O)/C=C(O)/C=C/c2ccc(OC)c(O)c2)cc1O [LL-27B]
- anti-AR activity, LNCaP [2]: 0

Compound: CCOC(=O)/C=C/C(C(=O)/C=C/c1ccc(O)c(OC)c1)=C(O)\C=C\c1ccc(O)c(OC)c1 [LL-66]
- anti-AR activity, wrAR/PC3 [4]: 0

Compound: COc1ccc(C(=O)CC(=O)c2ccc(OC)c(OC)c2)cc1OC [Compound 39, 1,3-bis(3,4-dimethoxyphenyl)-1,3-propandione]
- antagonistic activity against the AR (in words) [5]: less active than 4
- antagonistic activity against the AR (in words) [1]: less active than 4
- antiandrogen activity (in words) [3]: comparable or more potent antiandrogen activity than HF

Compound: COc1ccc(/C=C/C(=O)/C=C(O)/C=C/c2ccc(OC)c(OC)c2OC)cc1OC [LL-35]
- anti-AR activity, LNCaP [2]: 0
